From patent publication US20260108546A1 (ELI LILLY AND COMPANY, priority 2024, published 2026) come the findings set out here.

This test deals with T1, hGIP-R (Homo sapiens, UniProt P48546).
T1 construct: expressed in transfected cells; host or cells: HEK-293 clonal cell lines
T1 sequence (P48546 22-466): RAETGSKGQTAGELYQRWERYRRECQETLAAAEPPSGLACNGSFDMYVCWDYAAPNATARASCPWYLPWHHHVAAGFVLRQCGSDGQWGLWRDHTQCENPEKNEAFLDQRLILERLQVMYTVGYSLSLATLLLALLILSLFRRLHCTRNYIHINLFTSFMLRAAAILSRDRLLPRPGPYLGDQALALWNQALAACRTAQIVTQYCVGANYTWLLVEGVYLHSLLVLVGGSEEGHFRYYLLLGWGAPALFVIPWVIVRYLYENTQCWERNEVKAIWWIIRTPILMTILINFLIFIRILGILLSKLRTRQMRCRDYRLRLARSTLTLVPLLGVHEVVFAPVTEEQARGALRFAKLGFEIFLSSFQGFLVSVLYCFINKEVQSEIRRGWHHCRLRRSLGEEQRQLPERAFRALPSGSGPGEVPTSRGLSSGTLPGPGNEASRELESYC
Description: Functional hGIP-R Assay (cAMP formation, HTRF). It counts as cell-based. The following applies: for Emax: cAMP efficacy, percent of maximal response to GIP(1-42)OH, 37° C., 0.1% bovine casein, arithmetic mean ± SEM; for EC50: cAMP potency, HEK-293 cells expressing hGIP-R, incubated at 37° C. in the presence of 0.1% bovine casein, geometric mean, read-out: Human GIP-R EC50, nM (SEM, n). Summed up: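 HEK-293 cells expressing hGIP-R were given a 20-point compound series in DMEM with 0.1% casein, 250 μM IBMX, 1% DMSO, 30 min at 37 °C. cAMP was read by HTRF against a standard curve, expressed as % of human GIP (1-42) OH maximum; EC50 and Emax came from four-parameter fits.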
A general note: Changes in cAMP serve as a functional read-out for many G protein-coupled receptors.

Turning to `[2H]C([2H])([2H])n1cc(-c2cc(C(F)(F)F)nn2CC(C)(C)NC(=O)[C@@H](Cc2cnn(C(F)F)c2)N2CC[C@@]3(C[C@@H]3c3ccc(-c4cnc5nn(C)cc5c4)cc3)C2=O)cc(F)c1=O` [Example 141, (R)-3-(1-(Difluoromethyl)-1H-pyrazol-4-yl)-N-(1-(5-(5-fluoro-1-(methyl-d3)-6-oxo-1,6-dihydropyridin-3-yl)-3-(trifluoromethyl)-1H-pyrazol-1-yl)-2-methylpropan-2-yl)-2-((1R,3R)-1-(4-(2-methyl-2H-pyrazolo[3,4-b]pyridin-5-yl)phenyl)-4-oxo-5-azaspiro[2.4]heptan-5-yl)propanamide], the Emax (as a rule, the size of the effect at its maximum, as opposed to the concentration needed) amounted to 60.9 ± 5.88% and the EC50 (as a rule, the midpoint of the concentration-response curve) worked out at 26.2 nM.

For `Cn1cc2cc(-c3ccc([C@H]4C[C@@]45CCN([C@H](Cc4cnn(C(F)F)c4)C(=O)NC(C)(C)Cn4nc(C(F)(F)F)cc4-c4cnc(N6CCC(=O)CC6)nc4)C5=O)cc3)cnc2n1` [Example 142, (R)-3-(1-(Difluoro-methyl)-1H-pyrazol-4-yl)-N-(2-methyl-1-(5-(2-(4-oxopiperidin-1-yl)pyrimidin-5-yl)-3-(trifluoromethyl)-1H-pyrazol-1-yl)propan-2-yl)-2-((1R,3R)-1-(4-(2-methyl-2H-pyrazolo[3,4-b]pyridin-5-yl)phenyl)-4-oxo-5-azaspiro[2.4]heptan-5-yl)propanamide], the Emax amounted to 49.9 ± 1.38% and the EC50 worked out at 102 nM.

For `Cn1cc2cc(-c3ccc([C@H]4C[C@@]45CCN([C@H](Cc4cnn(C(F)F)c4)C(=O)NC(C)(C)Cn4nc(C(F)(F)F)cc4-c4ccc(C#N)nc4)C5=O)cc3)cnc2n1` [Example 143, (R)-N-(1-(5-(6-Cyanopyridin-3-yl)-3-(trifluoro-methyl)-1H-pyrazol-1-yl)-2-methylpropan-2-yl)-3-(1-(difluoro-methyl)-1H-pyrazol-4-yl)-2-((1R,3R)-1-(4-(2-methyl-2H-pyrazolo[3,4-b]pyridin-5-yl)phenyl)-4-oxo-5-azaspiro[2.4]heptan-5-yl)propanamide], the maximum response (Emax) worked out at 72.8 ± 3.32% and the EC50 amounted to 57.7 nM.

On to `Cc1cn2cc(-c3ccc([C@H]4C[C@@]45CCN([C@H](Cc4cnn(C(F)F)c4)C(=O)NC(C)(C)Cn4nc(C(F)(F)F)cc4-c4cc(F)c(=O)n(C)c4)C5=O)c(C)c3)cnc2n1` [Example 144, (R)-3-(1-(Difluoromethyl)-1H-pyrazol-4-yl)-N-(1-(5-(5-fluoro-1-methyl-6-oxo-1,6-dihydropyridin-3-yl)-3-(trifluoromethyl)-1H-pyrazol-1-yl)-2-methylpropan-2-yl)-2-((1R,3R)-1-(2-methyl-4-(2-methylimidazo[1,2-a]pyrimidin-6-yl)phenyl)-4-oxo-5-azaspiro[2.4]heptan-5-yl)propanamide], for which the Emax was 63.3 ± 2.24% and the EC50 came out at 0.755 nM.

On to `Cc1nc(-c2cnc3nc(C4CC4)cn3c2)ccc1[C@H]1C[C@@]12CCN([C@H](Cc1cnn(C(F)F)c1)C(=O)NC(C)(C)Cn1nc(C(F)(F)F)cc1-c1ccn(C3CC3)c(=O)c1)C2=O` [Example 145, (R)—N-(1-(5-(1-Cyclopropyl-2-oxo-1,2-dihydropyridin-4-yl)-3-(trifluoromethyl)-1H-pyrazol-1-yl)-2-methylpropan-2-yl)-2-((1R,3R)-1-(6-(2-cyclopropylimidazo[1,2-a]pyrimidin-6-yl)-2-methylpyridin-3-yl)-4-oxo-5-azaspiro[2.4]heptan-5-yl)-3-(1-(difluoromethyl)-1H-pyrazol-4-yl)propanamide], for which the Emax stood at 96.6 ± 2.37% and the EC50 amounted to 0.727 nM.

For `Cc1ncc(-c2cc(C(F)(F)F)nn2CC(C)(C)NC(=O)[C@@H](Cc2cnn(C(F)F)c2)NC(=O)[C@H]2C[C@@H]2c2ccc(-c3cnc4nn(C)cc4c3)nc2C(F)(F)F)cn1` [Example 147, (1S,2S)-N—((R)-3-(1-(Difluoromethyl)-1H-pyrazol-4-yl)-1-((2-methyl-1-(5-(2-methylpyrimidin-5-yl)-3-(trifluoromethyl)-1H-pyrazol-1-yl)propan-2-yl)amino)-1-oxopropan-2-yl)-2-(6-(2-methyl-2H-pyrazolo[3,4-b]pyridin-5-yl)-2-(trifluoromethyl)pyridin-3-yl)cyclopropane-1-carboxamide], the Emax was found to be 86.1 ± 9% and the EC50 was found to be 17.2 nM.

For `Cc1cn2cc(-c3ccc([C@H]4C[C@@]45CCN([C@H](Cc4cnn(C(F)F)c4)C(=O)NC(C)(C)Cn4nc(C(F)(F)F)cc4-c4ccc(=O)[nH]n4)C5=O)c(Cl)c3)cnc2n1` [Example 148, (R)-2-((1S,3R)-1-(2-Chloro-4-(2-methylimidazo[1,2-a]pyrimidin-6-yl)phenyl)-4-oxo-5-azaspiro[2.4]heptan-5-yl)-3-(1-(difluoromethyl)-1H-pyrazol-4-yl)-N-(2-methyl-1-(5-(6-oxo-1,6-dihydropyridazin-3-yl)-3-(trifluoromethyl)-1H-pyrazol-1-yl)propan-2-yl)propanamide], the Emax amounted to 74.4 ± 2.94% and the EC50 was 1.13 nM.

For the compound `Cc1cn2cc(-c3ccc([C@H]4C[C@@]45CCN([C@H](Cc4cnn(C(F)F)c4)C(=O)NC(C)(C)Cn4nc(C(F)(F)F)cc4-c4ccc(=O)[nH]n4)C5=O)c(F)c3)cnc2n1` [Example 149, (R)-3-(1-(Difluoromethyl)-1H-pyrazol-4-yl)-2-((1S,3R)-1-(2-fluoro-4-(2-methylimidazo[1,2-a]pyrimidin-6-yl)phenyl)-4-oxo-5-azaspiro[2.4]heptan-5-yl)-N-(2-methyl-1-(5-(6-oxo-1,6-dihydropyridazin-3-yl)-3-(trifluoromethyl)-1H-pyrazol-1-yl)propan-2-yl)propanamide], the Emax was 73.2 ± 2.43% and the EC50 was determined as 5.57 nM.

Regarding `Cc1cn2cc(-c3ccc([C@H]4C[C@@]45CCN([C@H](Cc4cnn(C(F)F)c4)C(=O)NC(C)(C)Cn4nc(C(F)(F)F)cc4-c4ccc(=O)n(COP(=O)(O)O)n4)C5=O)c(Cl)c3)cnc2n1` [Example 150, (3-(1-(2-((R)-2-((1S,3R)-1-(2-Chloro-4-(2-methylimidazo[1,2-a]pyrimidin-6-yl)phenyl)-4-oxo-5-azaspiro[2.4]heptan-5-yl)-3-(1-(difluoromethyl)-1H-pyrazol-4-yl)propanamido)-2-methylpropyl)-3-(trifluoromethyl)-1H-pyrazol-5-yl)-6-oxopyridazin-1 (6H)-yl)methyl dihydrogen phosphate], the Emax was determined as 89.5 ± 6.21% and the EC50 turned out to be 2.06 nM.

For `Cc1cn2cc(-c3ccc([C@H]4C[C@@]45CCN([C@H](Cc4cnn(C(F)F)c4)C(=O)NC(C)(C)Cn4nc(C(F)(F)F)cc4-c4ccc(=O)n(COP(=O)(O)O)n4)C5=O)c(F)c3)cnc2n1` [Example 151, (3-(1-(2-((R)-3-(1-(Difluoromethyl)-1H-pyrazol-4-yl)-2-((1S,3R)-1-(2-fluoro-4-(2-methylimidazo[1,2-a]pyrimidin-6-yl)phenyl)-4-oxo-5-azaspiro[2.4]heptan-5-yl)propanamido)-2-methylpropyl)-3-(trifluoromethyl)-1H-pyrazol-5-yl)-6-oxopyridazin-1 (6H)-yl)methyl dihydrogen phosphate], the Emax amounted to 106 ± 2.17% and the EC50 is 16.9 nM.

For `[2H]C([2H])([2H])n1cc(C[C@H](C(=O)NC(C)(C)Cn2nc(C(F)(F)F)cc2-c2cnc(C)nc2)N2CC[C@@]3(C[C@@H]3c3ccc(-c4cnc5nc(C)cn5c4)cc3Cl)C2=O)cn1` [Example 152, (R)-2-((1S,3R)-1-(2-Chloro-4-(2-methylimidazo[1,2-a]pyrimidin-6-yl)phenyl)-4-oxo-5-azaspiro[2.4]heptan-5-yl)-N-(2-methyl-1-(5-(2-methylpyrimidin-5-yl)-3-(trifluoromethyl)-1H-pyrazol-1-yl)propan-2-yl)-3-(1-(methyl-d3)-1H-pyrazol-4-yl)propanamide], the Emax was found to be 87.2 ± 1.03% and the EC50 amounted to 1.73 nM.

`Cn1cc(-c2ccc([C@H]3C[C@@]34CCN([C@H](Cc3cnn(C(F)F)c3)C(=O)NC(C)(C)Cn3nc(C(F)(F)F)cc3-c3cn[nH]n3)C4=O)c(Cl)c2)cnc1=O` [Example 154, (R)—N-(1-(5-(2H-1,2,3-Triazol-4-yl)-3-(trifluoromethyl)-1H-pyrazol-1-yl)-2-methylpropan-2-yl)-2-((1S,3R)-1-(2-chloro-4-(1-methyl-2-oxo-1,2-dihydropyrimidin-5-yl)phenyl)-4-oxo-5-azaspiro[2.4]heptan-5-yl)-3-(1-(difluoromethyl)-1H-pyrazol-4-yl)propanamide]: the Emax was found to be 74.2 ± 2.83% and the EC50 is 5.24 nM.

On to `Cn1cc(-c2cc(C(F)(F)F)nn2CC(C)(C)NC(=O)[C@@H](Cc2cnn(C(F)F)c2)NC(=O)[C@H]2C[C@@H]2c2nc3c(Cl)nn(C)c3cc2C#N)cc(F)c1=O` [Example 155, (1S,2S)-2-(3-Chloro-6-cyano-1-methyl-1H-pyrazolo[4,3-b]pyridin-5-yl)-N—((R)-3-(1-(difluoromethyl)-1H-pyrazol-4-yl)-1-((1-(5-(5-fluoro-1-methyl-6-oxo-1,6-dihydropyridin-3-yl)-3-(trifluoromethyl)-1H-pyrazol-1-yl)-2-methylpropan-2-yl)amino)-1-oxopropan-2-yl)cyclopropane-1-carboxamide], for which the Emax was 78.1 ± 4.92% and the EC50 was found to be 118 nM.
